Michaelis constant data for two compounds are collected here from article PMC6006479, “Minimization of dynamic effects in the evolution of dihydrofolate reductase” (Chemical Science, 2016).

This test deals with T1, MpDHFR (Moritella profunda, UniProt Q70YQ6).
T1 construct: gene dyrA; purified recombinant enzyme made in minimal medium; 'light' form with natural abundance isotopes; construct details only in supplement; monomeric
Put plainly: steady-state kinetics. The note with it: light (natural abundance) enzyme, pH 7.0. It is filed as biochemical.

Each structure is given as a SMILES string.

T1 sequence (Q70YQ6 entry or part of it): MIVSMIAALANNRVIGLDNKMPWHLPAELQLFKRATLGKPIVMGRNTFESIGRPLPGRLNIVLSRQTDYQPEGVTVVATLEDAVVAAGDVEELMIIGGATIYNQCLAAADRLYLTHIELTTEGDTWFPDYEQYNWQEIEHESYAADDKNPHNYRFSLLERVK

For `Nc1nc2c(c(=O)[nH]1)N=C(CNc1ccc(C(=O)N[C@@H](CCC(=O)O)C(=O)O)cc1)CN2` [DHF], the Michaelis constant entry (co-substrate NADPH) is “The Michaelis constants for NADPH and DHF are essentially the same for all these enzymes”. In the case of `NC(=O)C1=CN([C@@H]2O[C@H](COP(=O)(O)OP(=O)(O)OC[C@H]3O[C@@H](n4cnc5c(N)ncnc54)[C@H](OP(=O)(O)O)[C@@H]3O)[C@@H](O)[C@H]2O)C=CC1` [NADPH], under “co-substrate dihydrofolate”, the Michaelis constant entry was “The Michaelis constants for NADPH and DHF are essentially the same for all these enzymes”.
